Measurements from patent US12617779B2, “Self degradation-type CDK9 inhibitor prodrug and liposome encapsulating same” (Sumitomo Pharma Co., Ltd., priority 2021, dated 2026).

Assays:
[1] = Liposome encapsulation test, remote loading method (Experimental Example 4); assay type: physicochemical; conditions: for encapsulation rate, encapsulation efficiency and encapsulated compound content per 50 μmol of lipid: remote loading into liposomes;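 for encapsulation efficiency: encapsulated compound as percent of compound amount introduced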
Description: For Example 1, Example 2, Example 3, Example 4, Example 5, Example 6, Example 7, Example 8, Example 9, Example 10, Example 11, Example 12, Example 13, Example 14, Example 15, Example 16, Example 17 and Alvocidib, an encapsulation test in liposomes was performed using a remote loading method.
<Liposome Encapsulation Test of Example 1, Example 2, Example 5, Example 6, Example 9, Example 10, Example 11, Example 12, Example 13, Example 14, Example 15, and Example 16>
Hydrogenated soybean phosphatidylcholine (COATSOME NC-21E, manufactured by NOF CORPORATION, 7.77 g), cholesterol (manufactured by Sigma, 2.78 g) and distearoylphosphatidylethanolamine-methoxypolyethylene glycol 2000 (SUNBRIGHT DSPE-020CN, manufactured by NOF CORPORATION, 2.47 g) were dissolved in tert-butyl alcohol (720 mL) warmed to 65° C. The solution was placed in an eggplant flask and frozen in a dry ice-acetone bath, and then the tert-butyl alcohol was removed by evaporation under reduced pressure to give a lipid mixture.
To the above lipid mixture was added a 250 mM ammonium sulfate solution (240 mL), and the mixture was warmed to 65° C., and dispersed by a homogenizer (ULTRA-TURRAX, manufactured by IKA) to give a crude liposome dispersion. Then, the crude liposome dispersion was dispersed by a high pressure homogenizer (Nano-Mizer NM2, manufactured by YOSHIDA KIKAI CO., LTD.) at a pressure of 100 MPa to give liposomes with an average particle size (Z-average) of about 80 nm. The liposome outer solution was replaced with 10 mM L-histidine/10% sucrose solution (pH 6.5) using a dialysis cassette (Slide-A-Lyzer G2 Dialysis Cassettes 20K MWCO, manufactured by Thermo Scientific) to give an empty liposome solution. The solution was filtered through a 0.22 μm membrane filter, and a 10 mM L-histidine/10% sucrose solution (pH 6.5) was added thereto to adjust the total lipid concentration to 50 mM (50 μmol/mL). The lipid concentration was determined by quantitatively analyzing cholesterol using HPLC and calculating the total lipid concentration from the lipid mixing ratio. The amount for the above adjustment was increased or decreased as appropriate.
The compound (10 mg) was weighed, and the empty liposome solution (1 mL) with a total lipid concentration of 50 mM was added thereto. The solution was adjusted to pH 5 to 6 with 1 mol/L hydrochloric acid or 1 mol/L aqueous sodium hydroxide solution as necessary, warmed in a 65° C. water bath for 2 to 3 minutes, and ice-cooled. The mixture was centrifuged at 15,000×g for 5 minutes to precipitate and remove insoluble substances.
The liposome solution (100 μL) after removing insoluble substances was taken on an ultrafiltration filter (Amicon Ultra, 100K, 0.5 mL, manufactured by Merck) and centrifuged at 4° C., 15,000×g for 10 minutes. The compound concentrations in the liposome solution after removing insoluble substances and in the filtrate after ultrafiltration were determined by HPLC, and the encapsulation rate, encapsulation efficiency, and encapsulated compound content per 50 μmol of lipid were calculated by the following formula.
The measurement conditions for HPLC are as follows.
An empty liposome solution with a total lipid concentration of 75 mM was prepared by the same procedure as for the above example compound group. Each compound was weighed, and the empty liposome solution with a total lipid concentration of 75 mM was added thereto such that the compound concentration became 15 mg/mL. The solution was adjusted to pH 5 to 6 with 1 mol/L hydrochloric acid or 1 mol/L aqueous sodium hydroxide solution, warmed in a 65° C. water bath for 3 minutes, and ice-cooled. Hereafter, the encapsulation rate and encapsulation efficiency were calculated by the same procedure as for the above example compound group. The encapsulated compound content per 50 μmol of lipid was calculated by the following formula.
[formula] <Liposome Encapsulation Test of Example 7, Example 8 and Example 17> […]

[2] = Pharmacokinetic test, intravenous solution and liposome formulations in mice (Experimental Example 6); assay type: in vivo; conditions: female BALB/c mice
Description: This was used as a solution formulation.
This was used as a liposome formulation.
Hydrogenated soybean phosphatidylcholine (COATSOME NC-21E, manufactured by NOF CORPORATION, 3.238 g), cholesterol (manufactured by Sigma, 1.160 g) and 1,2-disteroyl-rac-glycero-3-methylpolyoxyethylen 2000 (SUNBRIGHT GS-020, manufactured by NOF CORPORATION, 0.983 g) were dissolved in tert-butyl alcohol (300 mL) warmed to 65° C. The solution was placed in an eggplant flask and frozen in a dry ice-acetone bath, and then the tert-butyl alcohol was removed by evaporation under reduced pressure to give a lipid mixture.
To the above lipid mixture was added to a 250 mM ammonium sulfate solution (100 mL), and the mixture was warmed to 65° C., and dispersed by a homogenizer (ULTRA-TURRAX, manufactured by IKA) to give a crude liposome dispersion. […] The solution was filtered through a 0.22 μm membrane filter to adjust the total lipid concentration to 75 mM (75 μmol/mL). […] The solution was adjusted to pH 5 to 6 with 1 mol/L aqueous sodium hydroxide solution, warmed in a 65° C. water bath for 3 minutes, and ice-cooled. The liposome outer solution was replaced with 10 mM tartrate buffer solution/10% sucrose solution (pH 4) using a dialysis cassette (Slide-A-Lyzer G2 Dialysis Cassettes 20K MWCO, manufactured by Thermo Scientific), followed by filtration through a 0.22 μm membrane filter to adjust the concentration.
The solution formulation or liposome formulation was instantly administered intravenously to 7-week-old female BALB/c mice, and the blood was collected over time from the jugular vein without anesthesia up to 24 hours after administration for the solution formulation administration group and up to 72 hours after administration for the liposome formulation administration group. […] The plasma sample was centrifuged, and the concentrations of the test compound and Alvocidib in the obtained supernatant were determined by LC-MS/MS.

[3] = Compound concentration when encapsulated 15 mg/mL
[4] = Compound concentration when encapsulated 10 mg/mL

SMILES	Encapsulated compound content per 50 μmol of lipid [1, 3] [mg]	Encapsulation efficiency [1, 3] [%]	Encapsulation rate [1, 3] [%]	encapsulation rate, encapsulation efficiency and encapsulated compound content per 50 μmol of lipid [1]	Blood retention of liposome formulation compared with the corresponding solution formulation [2]	Encapsulated compound content per 50 μmol of lipid [1, 4] [mg]	Encapsulation efficiency [1, 4] [%]	Encapsulation rate [1, 4] [%]
CN1CC[C@H](c2c(OC(=O)N(C)C[C@@H]3CCCCN3)cc(O)c3c(=O)cc(-c4ccccc4Cl)oc23)[C@H](O)C1 [Example 3, 2-(2-chlorophenyl)-5-hydroxy-8-[(3S,4R)-3-hydroxy-1-methylpiperidin-4-yl]-4-oxo-4H-1-benzopyran-7-yl methyl{[(2S)-piperidin-2-yl]methyl}carbamate]	6.0	60.2	61.0	high	higher blood retention	–	–	–
CN1CC[C@H](c2c(OC(=O)N(C)C[C@H]3CCCCN3)cc(O)c3c(=O)cc(-c4ccccc4Cl)oc23)[C@H](O)C1 [Example 4, 2-(2-chlorophenyl)-5-hydroxy-8-[(3S,4R)-3-hydroxy-1-methylpiperidin-4-yl]-4-oxo-4H-1-benzopyran-7-yl methyl{[(2R)-piperidin-2-yl]methyl}carbamate]	7.1	71.2	72.2	high	higher blood retention	–	–	–
CCCN(C[C@@H]1CCCCN1)C(=O)Oc1cc(O)c2c(=O)cc(-c3ccccc3Cl)oc2c1[C@H]1CCN(C)C[C@H]1O [Example 5, 2-(2-chlorophenyl)-5-hydroxy-8-[(3S,4R)-3-hydroxy-1-methylpiperidin-4-yl]-4-oxo-4H-1-benzopyran-7-yl {[(2S)-piperidin-2-yl]methyl}propylcarbamate]	–	–	–	high	higher blood retention	7.2	71.6	75.7
CCCN(C[C@H]1CCCCN1)C(=O)Oc1cc(O)c2c(=O)cc(-c3ccccc3Cl)oc2c1[C@H]1CCN(C)C[C@H]1O [Example 6, 2-(2-chlorophenyl)-5-hydroxy-8-[(3S,4R)-3-hydroxy-1-methylpiperidin-4-yl]-4-oxo-4H-1-benzopyran-7-yl {[(2R)-piperidin-2-yl]methyl}propylcarbamate]	–	–	–	high	higher blood retention	6.6	65.9	73.8
CN1CC[C@H](c2c(OC(=O)N(CCF)CC3CCCCN3)cc(O)c3c(=O)cc(-c4ccccc4Cl)oc23)[C@H](O)C1 (stereo partly drawn) [Example 11, 2-(2-chlorophenyl)-5-hydroxy-8-[(3S,4R)-3-hydroxy-1-methylpiperidin-4-yl]-4-oxo-4H-1-benzopyran-7-yl (2-fluoroethyl) [(piperidin-2-yl)methyl]carbamate]	–	–	–	–	higher blood retention	4.6	46.1	45.5
